US11236077B2, “Fruquintinib eutectic crystal, preparation method therefor, composition, and uses thereof” (Hangzhou SoliPharma Co., Ltd., priority 2018, dated 2022)
Values after ≈ are worked out from the molar mass of the structure shown.

Columns and labels:
Assay type in all cases: physicochemical
Solubility in water [1] = settings: for solubility in 25° C. water compared with known fruquintinib Form I: Comparative Example 1, result in words; for solubility at 1 min: deionized water, 25 °C, water, thermodynamic from solid; for solubility at 1 min / Solubility in Water: 10 mg in 10 ml deionized water, ultrasound 1 min, filtration, HPLC; for Solubility in Water: 25° C.
Protocol: High performance liquid chromatography (HPLC) data were collected on Ultimate 3000 and the concentration was tested with the external standard method. […] The specific operation steps: respectively took 10 mg of each of the above samples and put them into a 20 ml glass bottle respectively, added 10 ml deionized water, placed the solution at 25° C. ultrasound for 1 min, then took the samples for filtration and analyzed their concentrations using HPLC; calculated their solubility in water respectively.

[2] = Crystal slurry experiment in water (crystalline form stability); settings: Comparative Example 2, result in words
Protocol: X-ray powder diffraction (XRPD): performed on Bruker D8 Advance diffractometer. Samples were tested at room temperature. Testing conditions: 2θ scan range 3 to 40°, step size 0.02° and speed 0.2 s/step. […] The specific operation steps: respectively took 10 mg of each of the above samples and put them into a 5 ml glass bottle respectively, added 2 ml deionized water, stirred the solution at room temperature for 24 hours, then took the samples for filtration; and analyzed their crystalline forms with XRD.

[3] = Storage stability in desiccators at room temperature and RH 10% to 90%; settings: room temperature, 4 months
Solubility in water [4] = settings: background statement, conditions not given

solubility in 25° C. water compared with known fruquintinib Form I (Solubility in water [1]) | solubility at 1 min (Solubility in water [1]) | crystalline form after having been stirred in water for 24 hours [2] | appearance, XRPD and melting point after storage [3] | Solubility in Water (Solubility in water [1]; listed as Crystalline Form of Compound A of the present invention) | Solubility in Water (Solubility in water [1]) | solubility in water (inventors' finding) (Solubility in water [4]) | SMILES
– | – | – | – | – | 2.1 µg/mL (≈ 5.34 µM) | – | CNC(=O)c1c(C)oc2cc(Oc3ncnc4cc(OC)c(OC)cc34)ccc12 [Known fruquintinib Crystalline Form III, 6-(6,7-dimethoxyquinazoline-4-oxy)-N,2-dimethyl benzofuran-3-formamide, reference compound]
– | – | – | – | – | 2.6 µg/mL (≈ 6.61 µM) | – | CNC(=O)c1c(C)oc2cc(Oc3ncnc4cc(OC)c(OC)cc34)ccc12 [Known fruquintinib Crystalline Form VII, 6-(6,7-dimethoxyquinazoline-4-oxy)-N,2-dimethyl benzofuran-3-formamide, reference compound]

Further lines, the molecule ahead of its results:

SMILES | solubility in 25° C. water compared with known fruquintinib Form I (Solubility in water [1]) | solubility at 1 min (Solubility in water [1]) | crystalline form after having been stirred in water for 24 hours [2] | appearance, XRPD and melting point after storage [3] | Solubility in Water (Solubility in water [1]; listed as Crystalline Form of Compound A of the present invention) | Solubility in Water (Solubility in water [1]) | solubility in water (inventors' finding) (Solubility in water [4])
CNC(=O)c1c(C)oc2cc(Oc3ncnc4cc(OC)c(OC)cc34)ccc12.O=C(O)/C=C\C(=O)O | higher | 9.4 µg/mL | kept its form unchanged | unchanged | – | – | –
CNC(=O)c1c(C)oc2cc(Oc3ncnc4cc(OC)c(OC)cc34)ccc12.O=C(O)CC(=O)O | higher | 12 µg/mL | kept its form unchanged | unchanged | – | – | –
CNC(=O)c1c(C)oc2cc(Oc3ncnc4cc(OC)c(OC)cc34)ccc12 [Compound A] | higher | – | kept its form unchanged | unchanged | 9.9 µg/mL (≈ 25.2 µM) | – | –
CNC(=O)c1c(C)oc2cc(Oc3ncnc4cc(OC)c(OC)cc34)ccc12 [Known fruquintinib Crystalline Form I, 6-(6,7-dimethoxyquinazoline-4-oxy)-N,2-dimethyl benzofuran-3-formamide, reference compound] | – | – | – | – | – | 2.2 µg/mL (≈ 5.59 µM) | poor
